Paper PMC6367500, “18β-glycyrrhetyl-3-O-sulfate would be a causative agent of licorice-induced pseudoaldosteronism” (Scientific Reports, 2019)

Tests used:
[1] = parameters: method as in PMID 17331546; settings: guinea pigs; cited from earlier work
[2] = Biliary excretion of GA metabolites in SD rats injected i.v. with GA; type: in vivo; settings: GA 0.2 mg/kg i.v.
Experimental: Figure 3 Pharmacokinetic profiles of GL metabolites in SD rats (A,C,E,F) and EHBRs (B,D) after the administration of GA. GA (200 mg/kg) was administered orally to anesthetized SD rats or EHBRs, and plasma and urine were collected for 12 h (A–D). GA (0.2 mg/kg) was intravenously injected into anesthetized SD rats in which the biliary tract was cannulated. Then, bile samples were collected for 4 h (E). GA (0.2 mg/kg) was intravenously injected into conscious SD rats, and the feces was collected for 24 h. […] Since the determined lavels of 3MGA for B and D, 3 for C, GA for D, and all compounds except for 3 for E were relatively low; their magnified versions of their graphs are shown at the top or as an inside of each graph. The concentrations of GA metabolites were measured by LC-MS/MS, and data are plotted as mean ± S.E. (n = 4 for A–D,F; n = 3 for E).
GA, 3MGA, and compounds 1–3 were gradually excreted into the bile in SD rats injected i.v. with GA (0.2 mg/kg) and the accumulation of 3 in the bile at 4 h was 12-, 1.5 × 10^3-, 32-, and 15-fold those of GA, 3MGA, 1, and 2, respectively (Fig. 3E). […] GA, 3, and 2 were found in the feces of SD rats collected for 24 h after the i.v. injection of GA (0.2 mg/kg), while 3MGA and 1 were not found in the feces (Fig. 3F).
Female SD rats or EHBRs (9-week-old) were anesthetized by an intraperitoneal (i.p.) injection of urethane (1 g/kg) and their jugular veins were exposed. GA suspended in 0.5% CMC was then administered orally (200 mg/kg) to the unconscious rats, and blood samples were collected from the jugular vein; urine samples were collected using a metabolic cage at an appropriate time over a 12-h period. […] Feces were homogenized in phosphate-buffered saline (PBS; 0.15 M, pH 7.2), centrifuged (1.2 × 10^4 g, 10 min), and the supernatants were collected. After 1 week as a washout period, female SD rats were anesthetized by an i.p. injection of urethane (1 g/kg) and their biliary tract was cannulated. GA (0.2 mg/kg) was injected into the jugular vein, and the bile was collected every hour for 4 h. Aliquots (10 µl) of plasma, urine, homogenate of feces, or bile were mixed with 20 µl of subtilisin (0.91 U/ml) and incubated at 37 °C for 30 min, followed by the addition of 70 µl of astragaloside IV solution (1 µg/ml in ethanol containing 0.5% formic acid, used as internal standard), and kept at −20 °C for 30 min. […] The transitions (precursor to daughter) monitored and retention times were as follows: ESI(+) 743.4 to 567.5 m/z for compound 1 (5.5 min), ESI(−) 565.5 to 96.5 m/z for 2 (6.2 min), ESI(−) 549.5 to 96.5 m/z for 3 (8.1 min), ESI(+) 647.6 to 453.6 m/z for 3MGA (9.2 min), ESI(+) 471.3 to 91.0 m/z for GA (8.8 min), ESI(+) 823.5 to 453.6 m/z for GL (10.8 min), and ESI(+) 785.4 to 143.0 m/z for astragaloside IV (3.0 min). Linear regressions over the concentration range of 32 nM to 20 µM for each compound were examined using the peak-area ratio of the compounds to their internal standards and the least-squares method (r^2 > 0.98).

Row | SMILES | hypokalemia after i.v. injection [1] | rank among GA metabolites eliminated into bile [2] | accumulation in bile at 4 h relative to that of 1 ([2]; biliary tract cannulated) [fold] | accumulation in bile at 4 h relative to that of 2 ([2]; biliary tract cannulated) [fold] | accumulation in bile at 4 h relative to that of 3MGA ([2]; biliary tract cannulated) | accumulation in bile at 4 h relative to that of GA ([2]; biliary tract cannulated) [fold]
1 | CC1(C)[C@@H](O[C@@H]2O[C@H](C(=O)O)[C@@H](O)[C@H](O)[C@H]2O)CC[C@]2(C)[C@H]3C(=O)C=C4[C@@H]5C[C@@](C)(C(=O)O)CC[C@]5(C)CC[C@@]4(C)[C@]3(C)CC[C@@H]12 [3MGA, 3-monoglucuronyl glycyrrhetinic acid, reference compound] | caused hypokalemia | – | – | – | – | –
2 | CC1(C)[C@@H](OS(=O)(=O)O)CC[C@]2(C)[C@H]3C(=O)C=C4[C@@H]5C[C@@](C)(C(=O)O)CC[C@]5(C)CC[C@@]4(C)[C@]3(C)CC[C@@H]12 [compound 3, 18β-glycyrrhetyl-3-O-sulfate] | – | major metabolite of GA eliminated into the bile | 32 | 15 | 1.5 × 10^3 fold | 12
